Data set [1] can be described thus: Tolerability in mice. It counts as in vivo. The settings on record: mice.
The subject of data set [2] is murine endothelial cells in MCF-7 tumors. Nature of the data set: Endothelial cell area in GSL-1 lectin stained MCF-7 tumor sections. It counts as in vivo, nude mice. The settings on record: viable areas of tumors, three days treatment, GSL-1 staining; control tumors 14%. As to the method: For specific staining of endothelial cells, paraffin-embedded sections (4 μm) were deparafinized and rehydrated. Sections were first treated with a blocking solution containing nonimmune goat serum for 30 min at room temperature and then with a 0.1 mg/ml solution of biotinylated Griffonia simplicifolia lectin (GSL-1) for 60 min. The GSL-1 lectin binds specifically to α-galactosyl residues and marks the vascular endothelium in mice. The sections were then washed with TRIS buffered saline (TBS) and treated for 30 min with avidin-biotin-peroxidase complex (Vector Laboratories, Burlingame, Calif.), after which the peroxidase was activated by incubation of the sections with 0.1 M acetate buffer (pH 5.2) containing 3% H2O2 and 3% 3-amino-9-ethylcarbazole for 5-10 min. […] The area of stained endothelial cells was determined by measuring the area above a threshold intensity (red 46-165; green 25-119; blue 37-94) of the peroxidase reaction product in each slice. […] Ten to fifteen areas per section were recorded for tumors treated three days with either the placebo and TMI.
Vascular density of murine endothelial cells was evaluated by specific staining, using the GSL-1 lectin (the equivalent of factor VIII antibody staining for human endothelial systems) followed by color image analysis of the resulting sections. […]

Data set [3] deals with MMP-2 (Gelatinase A) promoter. Nature of the data set: MMP-2 (Gelatinase A) related CAT activity in transfected bovine endothelial cells. It counts as cell-based. The method, then:
Regulation of collagenase gene expression (for MMP-2 and MMP-9) was studied by measuring the activation of the relevant promoters linked to chloramphenicol acetyl transferase (CAT) as a reporter gene. The relevant vectors were introduced into the fibrosarcoma and endothelial cells by the lipofection as indicated by the manufacturer. CAT activity was determined after 3, 6 and 24 hrs either in the absence or presence of various concentrations of TMI.
To further examine where the inhibitory effects of TMI are manifested, human fibrosarcoma cells as well as bovine endothelial cells were transfected with plasmids containing the promoters for type IV collagenase (both MMP-2 and MMP-9) and the chloramphenicol acetyl transferase (CAT) construct to act as a reporter. Simian virus-40 (SV-40) served as the positive control. TMI was added to the transfected cells at concentrations of 1, 5 and 10 μM for 2 days, at which time cell viability was confirmed by trypan blue exclusion and cell counting.
In endothelial cells, TMI reduced CAT activity by 45% at 1.0 μM and by 80% at 10 μM.

Data set [4] relates to MCF-7 tumors. Nature of the data set: Growth of MCF-7 tumors implanted in ventral fat pad of nude mice, tumor size by MRI. It counts as in vivo. The settings on record: TMI pellet 6.3 mg 45-day release, 25 day time course. The method, then:
Female CD1-nu/nu athymic mice (6 weeks old) were obtained from the Weizmann Institute Department of Animal Services. MCF-7 cells, serially passed as described above, were detached from the culturing flasks with 0.03% EDTA in phosphate buffered saline (PBS) and washed several times in normal saline. Cells (10^7/innoculum) were then injected into the ventral fat pad at the level of the breast. Coincident with cell introduction, a slow-release pellet of estradiol (0.72 mg/pellet, 45-day release profile; Innovative Research, Sarasota, Fla.) was implanted subcutaneously in the flank of the animal. Mice were anesthetized with ketamine/Rompun (i.p.) for the surgical procedures. […] At this point, animals were randomized into four study groups. In the first, the estrogen pellet was removed and replaced with a slow-release TMI-laden pellet (6.3 mg, 45-day release) (n=5). In the second group, the estrogen pellet was removed and replaced with a tamoxifen pellet (n=7). The third group was treated with a blank (placebo) pellet (n=5), while the fourth group was reimplanted with an estradiol pellet (n=4). TMI and placebo-treated animals were imaged (under ketamine/Rompun anesthesia) either immediately before pellet exchange (day 0) or at day 3, 6, 12 and 25 after pellet exchange.
MRI images were recorded with a Bruker 4.7 (tesla)/30 Biospec spectrometer (Bruker Medizintechnik, Rheinstetten, Germany). 1H Spin-echo images were recorded at 200.12 MHz using a custom-made 4.5 cm rf coil with an image data matrix of 256×128 pixels. Pilot scans of the tumors were completed using a fast transverse multi-slice spin-echo sequence (giving T1-weighted spectra; inter-echo time (TE)=16 msec, recovery time (TR)=500 msec) followed by T2-weighted sequences in which axial slices perpendicular to the spine (i.e., a coronal orientation) were recorded. In the latter case, spin-echo images were obtained using a 4 cm field of view, 1 mm slice thickness, 1.2 mm slice-to-slice distance and a four-sequence average. The TE and TR were optimized to provide the best image contrast generating values of 80 and 3200 msec, respectively. This gave a total imaging time of approximately 30 min. […] Tumor size was calculated using a slice-to-slice reconstruction in which the slice surface area was obtained from histograms provided by the resident Bruker software package using the following relationship: […]
where XSA is the cross-sectional area of an internal slice, ES is the cross-sectional area of an edge slice, l is the slice thickness and ssd is the distance from the middle of one slice to the middle of the next. For image analysis, the average pixel intensity of viable portions of MCF-7 tumors was determined from a central tumor slice using histograms generated by the dedicated Bruker software package. […]

As for `CC/C(=C(\c1ccccc1)c1ccc(OCC[N+](C)(C)C)cc1)c1ccccc1` [TMI, Tamoxifen methiodide], the tolerability entry in data set [1] was “well tolerated”. In data set [2], the “mean percentage of endothelial cell areas” value amounted to 5%. Besides, the “reduction of CAT activity” value in data set [3] (1.0 μM) is on record as 45%; in data set [3] (10 μM), 80%. Further, the “tumor regression (average shrinking)” value in data set [4] was 20%.

The values above are taken from patent publication US6387955B1, “Enhanced anti-angiogenic activity of permanently charged derivatives of steroid hormones” (Pharmos Corporation, priority 1997, dated 2002).
